Assay results taken from PubChem BioAssay AID1963858 (Molecular Pharmacology Branch, DTP, NCI, 2024).

System: HOP-62 multicell spheroids with HUVEC/MSC, viability
Assay: Anticancer human tumor HOP-62 cell line growth inhibition [KRAS2];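 further: viability read after a week of compound exposure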;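 on viability, T/C: 100% = DMSO vehicle-treated spheroids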
Conditions: for IC50: curve of first compound; for viability, T/C: stronger effect = lower value
Summary of the method: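 Combination screen of spheroid viability in tumor-cell co-cultures with endothelial (HUVEC) and mesenchymal stem cell stroma. Each agent was tested in half-log dilutions, topping at clinical Cmax or at 10 microM without a known Cmax.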

[1] = second compound 0.1 µM, first compound 0.0316 µM
[2] = second compound 0.1 µM, first compound 0.1 µM
[3] = second compound 0.1 µM, first compound 0.316 µM
[4] = second compound 0.1 µM, first compound 1 µM
[5] = second compound 0.1 µM, first compound 3.16 µM
[6] = second compound 0.1 µM, first compound 10 µM
[7] = second compound 0.316 µM, first compound 0.0316 µM
[8] = second compound 0.316 µM, first compound 0.1 µM
[9] = second compound 0.316 µM, first compound 0.316 µM
[10] = second compound 0.316 µM, first compound 1 µM
[11] = second compound 0.316 µM, first compound 3.16 µM
[12] = second compound 0.316 µM, first compound 10 µM
[13] = second compound 1 µM, first compound 0.0316 µM
[14] = second compound 1 µM, first compound 0.1 µM
[15] = second compound 1 µM, first compound 0.316 µM
[16] = second compound 1 µM, first compound 1 µM
[17] = second compound 1 µM, first compound 3.16 µM
[18] = second compound 1 µM, first compound 10 µM
[19] = second compound 3.16 µM, first compound 0.0316 µM
[20] = second compound 3.16 µM, first compound 0.1 µM
[21] = second compound 3.16 µM, first compound 0.316 µM
[22] = second compound 3.16 µM, first compound 1 µM
[23] = second compound 3.16 µM, first compound 3.16 µM
[24] = second compound 3.16 µM, first compound 10 µM
[25] = second compound 10 µM, first compound 0.0316 µM
[26] = second compound 10 µM, first compound 0.1 µM
[27] = second compound 10 µM, first compound 0.316 µM
[28] = second compound 10 µM, first compound 1 µM
[29] = second compound 10 µM, first compound 3.16 µM
[30] = second compound 10 µM, first compound 10 µM
[31] = second compound 0.1 µM, first compound 0.000316 µM
[32] = second compound 0.1 µM, first compound 0.001 µM
[33] = second compound 0.1 µM, first compound 0.00316 µM
[34] = second compound 0.1 µM, first compound 0.01 µM
[35] = second compound 0.316 µM, first compound 0.000316 µM
[36] = second compound 0.316 µM, first compound 0.001 µM
[37] = second compound 0.316 µM, first compound 0.00316 µM
[38] = second compound 0.316 µM, first compound 0.01 µM
[39] = second compound 1 µM, first compound 0.000316 µM
[40] = second compound 1 µM, first compound 0.001 µM
[41] = second compound 1 µM, first compound 0.00316 µM
[42] = second compound 1 µM, first compound 0.01 µM
[43] = second compound 3.16 µM, first compound 0.000316 µM
[44] = second compound 3.16 µM, first compound 0.001 µM
[45] = second compound 3.16 µM, first compound 0.00316 µM
[46] = second compound 3.16 µM, first compound 0.01 µM
[47] = second compound 10 µM, first compound 0.000316 µM
[48] = second compound 10 µM, first compound 0.001 µM
[49] = second compound 10 µM, first compound 0.00316 µM
[50] = second compound 10 µM, first compound 0.01 µM

| SMILES | IC50 (second compound 0.1 µM) [nM] | IC50 (second compound 0.316 µM) [nM] | IC50 (second compound 1 µM) [nM] | IC50 (second compound 3.16 µM) [nM] | IC50 (second compound 10 µM) [nM] | viability, T/C [1] [%] | viability, T/C [2] [%] | viability, T/C [3] [%] | viability, T/C [4] [%] | viability, T/C [7] [%] | viability, T/C [8] [%] | viability, T/C [9] [%] | viability, T/C [10] [%] | viability, T/C [13] [%] | viability, T/C [14] [%] | viability, T/C [15] [%] | viability, T/C [19] [%] | viability, T/C [20] [%] | viability, T/C [25] [%] | viability, T/C [26] [%] | other results |
| --- | --- | --- | --- | --- | --- | --- | --- | --- | --- | --- | --- | --- | --- | --- | --- | --- | --- | --- | --- | --- | --- |
| CC(C)NCC(C(=O)N1CCN(c2ncnc3c2C(C)CC3O)CC1)c1ccc(Cl)cc1 (stereo not given) + CNCc1ccccc1-c1csc(C(C)Nc2nc(C)nc3cc(OC)c(OC)cc23)c1 | 844 | 608 | 212 | < 31.6 | < 31.6 | 119 | 83 | 83.4 | 45.9 | 89.5 | 78.5 | 73.7 | 32.4 | 81.3 | 74.8 | 35.6 | 0.41 | 0.71 | 0.24 | 0.26 | viability, T/C [5]: 17.2%; viability, T/C [6]: 10.3%; viability, T/C [11]: 13.4%; viability, T/C [12]: 10.2%; viability, T/C [16]: 23.4%; viability, T/C [17]: 16.9%; viability, T/C [18]: 9.94%; viability, T/C [21]: 0.27%; viability, T/C [22]: 0.47%; viability, T/C [23]: 0.17%; viability, T/C [24]: 0.26%; viability, T/C [27]: 0.26%; viability, T/C [28]: 0.25%; viability, T/C [29]: 0.23%; viability, T/C [30]: 0.33% |
| CC(C)n1nc(-c2ccc3oc(N)nc3c2)c2c(N)ncnc21 + CNCc1ccccc1-c1csc(C(C)Nc2nc(C)nc3cc(OC)c(OC)cc23)c1 | 4.45 | 2.24 | 1.78 | < 0.316 | < 0.316 | 22.2 | 15.9 | – | – | 19.5 | 15.9 | – | – | 17.3 | 14.1 | – | 2.66 | 0.67 | 0.38 | 0.52 | viability, T/C [31]: 113%; viability, T/C [32]: 86.7%; viability, T/C [33]: 57.9%; viability, T/C [34]: 32.5%; viability, T/C [35]: 89.5%; viability, T/C [36]: 69.2%; viability, T/C [37]: 40.2%; viability, T/C [38]: 27.9%; viability, T/C [39]: 75.9%; viability, T/C [40]: 63.1%; viability, T/C [41]: 35.3%; viability, T/C [42]: 28.9%; viability, T/C [43]: 0.36%; viability, T/C [44]: 0.49%; viability, T/C [45]: 0.36%; viability, T/C [46]: 0.46%; viability, T/C [47]: 0.46%; viability, T/C [48]: 0.4%; viability, T/C [49]: 0.42%; viability, T/C [50]: 0.42% |
| CC1(C)CCC(CN2CCN(c3ccc(C(=O)NS(=O)(=O)c4ccc(NCC5CCOCC5)c([N+](=O)[O-])c4)c(Oc4cnc5[nH]ccc5c4)c3)CC2)=C(c2ccc(Cl)cc2)C1 + CNCc1ccccc1-c1csc(C(C)Nc2nc(C)nc3cc(OC)c(OC)cc23)c1 | 5710 | 4570 | 3380 | < 31.6 | < 31.6 | 92.1 | 89.5 | 82.5 | 95.3 | 81.2 | 77 | 76.5 | 81.6 | 90.1 | 76.2 | 67.8 | 1.65 | 25.9 | 0.12 | 0.16 | viability, T/C [5]: 71.6%; viability, T/C [6]: 29.5%; viability, T/C [11]: 61.8%; viability, T/C [12]: 24.9%; viability, T/C [16]: 73.1%; viability, T/C [17]: 54%; viability, T/C [18]: 14.9%; viability, T/C [21]: 17.9%; viability, T/C [22]: 40.3%; viability, T/C [23]: 13.5%; viability, T/C [24]: 1.45%; viability, T/C [27]: 0.16%; viability, T/C [28]: 0.18%; viability, T/C [29]: 0.15%; viability, T/C [30]: 0.22% |
| CCN1CCN(Cc2ccc(Nc3ncc(F)c(-c4cc(F)c5nc(C)n(C(C)C)c5c4)n3)nc2)CC1 + CNCc1ccccc1-c1csc(C(C)Nc2nc(C)nc3cc(OC)c(OC)cc23)c1 | > 1000 | > 1000 | 257 | < 3.16 | < 3.16 | 95.3 | 90.4 | 72.6 | 54.4 | 81.3 | 71 | 71.7 | 48.4 | 72.9 | 52.6 | 51.4 | 0.14 | 0.21 | 0.1 | 0.11 | viability, T/C [33]: 102%; viability, T/C [34]: 112%; viability, T/C [37]: 108%; viability, T/C [38]: 90.4%; viability, T/C [41]: 97%; viability, T/C [42]: 73.6%; viability, T/C [16]: 41.4%; viability, T/C [45]: 0.39%; viability, T/C [46]: 0.5%; viability, T/C [21]: 0.17%; viability, T/C [22]: 0.16%; viability, T/C [49]: 0.1%; viability, T/C [50]: 0.1%; viability, T/C [27]: 0.1%; viability, T/C [28]: 0.16% |
| CCNC(=O)CC1N=C(c2ccc(Cl)cc2)c2cc(OC)ccc2-n2c(C)nnc21 (stereo not given) + CNCc1ccccc1-c1csc(C(C)Nc2nc(C)nc3cc(OC)c(OC)cc23)c1 | 438 | 245 | 136 | < 31.6 | < 31.6 | 103 | 74.4 | 52.3 | 43.1 | 92.3 | 72 | 44.7 | 30.9 | 86 | 54.3 | 38.2 | 0.15 | 0.21 | 0.1 | 0.09 | viability, T/C [5]: 37.3%; viability, T/C [6]: 35.1%; viability, T/C [11]: 33.6%; viability, T/C [12]: 32.6%; viability, T/C [16]: 29.7%; viability, T/C [17]: 28.1%; viability, T/C [18]: 28.6%; viability, T/C [21]: 0.07%; viability, T/C [22]: 0.06%; viability, T/C [23]: 0.06%; viability, T/C [24]: 0.13%; viability, T/C [27]: 0.1%; viability, T/C [28]: 0.09%; viability, T/C [29]: 0.23%; viability, T/C [30]: 0.17% |
| Cn1ncnc1[C@H]1c2n[nH]c(=O)c3cc(F)cc(c23)N[C@@H]1c1ccc(F)cc1 + CNCc1ccccc1-c1csc(C(C)Nc2nc(C)nc3cc(OC)c(OC)cc23)c1 | > 100 | > 100 | > 100 | < 0.316 | < 0.316 | 86.5 | 71 | – | – | 79.3 | 74.9 | – | – | 68.9 | 53.7 | – | 2.25 | 5.87 | 0.68 | 0.19 | viability, T/C [31]: 98.2%; viability, T/C [32]: 92.1%; viability, T/C [33]: 91.8%; viability, T/C [34]: 97.1%; viability, T/C [35]: 101%; viability, T/C [36]: 93.9%; viability, T/C [37]: 89.4%; viability, T/C [38]: 83.7%; viability, T/C [39]: 69.2%; viability, T/C [40]: 73%; viability, T/C [41]: 81.2%; viability, T/C [42]: 78.1%; viability, T/C [43]: 0.2%; viability, T/C [44]: 0.14%; viability, T/C [45]: 0.99%; viability, T/C [46]: 0.21%; viability, T/C [47]: 0.12%; viability, T/C [48]: 0.17%; viability, T/C [49]: 0.16%; viability, T/C [50]: 0.15% |
